# Measurements from patent US12145944B2, “Imidazopyrimidines as EED inhibitors and the use thereof” (THE REGENTS OF THE UNIVERSITY OF MICHIGAN, priority 2019, dated 2024).
# pIC50: −log10 of the molar value. Like-named read-outs stand apart in the source and are kept apart here.
# Columns and labels:
# EED (1-441)-His protein = biological target: T1, EED (1-441)-His protein (Homo sapiens, UniProt O75530); assay: EED-H3K27Me3 peptide competition binding assay by AlphaScreen; conditions: EED Alpha screen binding assay, read-out: Alpha screen
# T1 construct: 20 nM EED (1-441)-His protein
# T1 sequence (O75530 whole entry): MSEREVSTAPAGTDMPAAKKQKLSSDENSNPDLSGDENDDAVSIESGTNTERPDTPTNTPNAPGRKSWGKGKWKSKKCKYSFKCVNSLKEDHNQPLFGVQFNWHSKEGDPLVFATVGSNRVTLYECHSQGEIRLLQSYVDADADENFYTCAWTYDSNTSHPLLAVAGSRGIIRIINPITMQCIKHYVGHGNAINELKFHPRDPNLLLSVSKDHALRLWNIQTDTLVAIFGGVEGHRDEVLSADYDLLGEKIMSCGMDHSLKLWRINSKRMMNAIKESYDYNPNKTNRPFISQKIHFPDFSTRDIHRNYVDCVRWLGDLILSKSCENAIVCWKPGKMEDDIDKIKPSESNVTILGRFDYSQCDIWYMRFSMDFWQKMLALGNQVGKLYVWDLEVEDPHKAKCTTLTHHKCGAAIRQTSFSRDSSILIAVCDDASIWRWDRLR
# Experimental: “N/A” stands for “not assessed”.
# EED-H3K27Me3 peptide competition binding assay by AlphaScreen (α-screen)
# 2.5 μl of solutions containing 20 nM biotin-H3K27Me3 (19-33) peptide in the buffer (25 mM HEPES, pH 8, 0.02% Tween-20, 0.5% BSA) were added to the wells and then incubated with compound for 30 min. […] Then 10 μl of the detection beads mix was added to the plate and incubated in the dark at RT for 1 h. The final concentration of donor and acceptor beads was 10 μg/ml for each. […] The data were then fit to a dose response equation to get the IC50 values.
# [1] = test system: KARPAS422 human B cell lymphoma cell; assay: Cell proliferation, KARPAS422, 7 day treatment (WST-8); type: cell-based; conditions: 7 day treatment, read-out: Karpas Cell line
# How it was run: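 Read-out was WST-8 absorbance at 450 nm after 1-4 h with reagent, taken after 7-day compound treatment (serial dilutions, 37 °C, 5% CO2) of 2 000-3 000 KARPAS422 cells per well. IC50 fitted by nonlinear regression on DMSO-normalized values.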
# Pfeiffer cell line = assay: Anti-proliferative activity, Pfeiffer cell line, 7 day treatment; type: cell-based; conditions: 7 day treatment, read-out: Pfeiffer Cell line
# How it was run: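 Cells seeded at 2 000-3 000 per well were treated with serially diluted compounds for 7 days at 37° C, 5% CO2. Growth was measured by WST-8 assay read at 450 nm after 1-4 h reagent incubation. Readings were normalized to DMSO-treated cells and IC50 values derived by nonlinear regression.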
# [2] = Homo sapiens, KARPAS-422, 168 h, anti-proliferative IC50 class, Karpas 422 cell line
# [3] = Homo sapiens, 168 h, anti-proliferative IC50 class, Pfeiffer cell line
# [4] = Homo sapiens, KARPAS-422, 168 h, anti-proliferative IC50, Karpas 422 cell line
SMILES,pIC50 (EED (1-441)-His protein; IC50 class),"pIC50 [1, 2]",pIC50 (Pfeiffer cell line; [3]),pIC50 (EED (1-441)-His protein),"pIC50 [1, 4]",further results
"Cc1ccc2c(n1)CN(CC(F)(F)F)C(=O)c1ncn3c(NCc4c(F)ccc5c4CCO5)ncc-2c13 [E 3, 12-(((5-fluoro-2,3-dihydrobenzofuran-4-yl)methyl)amino)-7-methyl-4-(2,2,2-trifluoroethyl)-4,5-dihydro-3H-2,4,6,11,12a-pentaazabenzo[4,5]cycloocta[1,2,3-cd]inden-3-one]",> 8.00,> 8.00,> 8.00,–,–,–
"Cc1ccc2c(n1)CN(CC(C)(F)F)C(=O)c1ncn3c(NCc4c(F)ccc5c4CCO5)ncc-2c13 [E 7, 4-(2,2-difluoropropyl)-12-(((5-fluoro-2,3-dihydrobenzofuran-4-yl)methyl)amino)-7-methyl-4,5-dihydro-3H-2,4,6,11,12a-pentaazabenzo[4,5]cycloocta[1,2,3-cd]inden-3-one]",> 8.00,> 8.00,> 8.00,–,–,–
"[2H]C([2H])([2H])c1ccc2c(n1)CN(CC(F)(F)F)C(=O)c1ncn3c(NCc4c(F)ccc5c4CCO5)ncc-2c13 [E 19, 12-(((5-fluoro-2,3-dihydrobenzofuran-4-yl)methyl)amino)-7-(methyl-d3)-4-(2,2,2-trifluoroethyl)-4,5-dihydro-3H-2,4,6,11,12a-pentaazabenzo[4,5]cycloocta[1,2,3-cd]inden-3-one]",> 8.00,> 8.00,> 8.00,–,–,–
"[2H]C([2H])(Nc1ncc2c3c(ncn13)C(=O)N(CC(F)(F)F)Cc1nc(C)ccc1-2)c1c(F)ccc2c1CCO2 [E 20, 12-(((5-fluoro-2,3-dihydrobenzofuran-4-yl)methyl-d2)amino)-7-methyl-4-(2,2,2-trifluoroethyl)-4,5-dihydro-3H-2,4,6,11,12a-pentaazabenzo[4,5]cycloocta[1,2,3-cd]inden-3-one]",> 8.00,> 8.00,> 8.00,–,–,–
"[2H]C([2H])([2H])c1ccc2c(n1)CN(CC(F)(F)F)C(=O)c1ncn3c(NC([2H])([2H])c4c(F)ccc5c4CCO5)ncc-2c13 [E 21, 12-(((5-fluoro-2,3-dihydrobenzofuran-4-yl)methyl-d2)amino)-7-(methyl-d3)-4-(2,2,2-trifluoroethyl)-4,5-dihydro-3H-2,4,6,11,12a-pentaazabenzo[4,5]cycloocta[1,2,3-cd]inden-3-one]",> 8.00,> 8.00,> 8.00,–,–,–
"[2H]C1Oc2ccc(F)c(C([2H])([2H])Nc3ncc4c5c(ncn35)C(=O)N(CC(F)(F)F)Cc3nc(C)ccc3-4)c2C1[2H] (centres unmarked) [E 22, 12-(((5-fluoro-2,3-dihydrobenzofuran-4-yl-2,3-d2)methyl-d2)amino)-7-methyl-4-(2,2,2-trifluoroethyl)-4,5-dihydro-3H-2,4,6,11,12a-pentaazabenzo[4,5]cycloocta[1,2,3-cd]inden-3-one]",> 8.00,> 8.00,> 8.00,–,–,–
"[2H]C1Oc2ccc(F)c(C([2H])([2H])Nc3ncc4c5c(ncn35)C(=O)N(CC(F)(F)F)Cc3nc(C([2H])([2H])[2H])ccc3-4)c2C1[2H] (centres unmarked) [E 23, 12-(((5-fluoro-2,3-dihydrobenzofuran-4-yl-2,3-d2)methyl-d2)amino)-7-(methyl-d3)-4-(2,2,2-trifluoroethyl)-4,5-dihydro-3H-2,4,6,11,12a-pentaazabenzo[4,5]cycloocta[1,2,3-cd]inden-3-one]",> 8.00,> 8.00,> 8.00,–,–,–
"Cc1ccc(-c2cc(C#N)c(NCc3c(F)ccc4c3CCO4)n3cnc(S(C)(=O)=O)c23)c(C)n1 [E 25, 8-(2,6-dimethylpyridin-3-yl)-5-(((5-fluoro-2,3-dihydrobenzofuran-4-yl)methyl)amino)-1-(methylsulfonyl)imidazo[1,5-a]pyridine-6-carbonitrile]",> 8.00,7.00 to 8.00,7.00 to 8.00,–,–,–
"CS(=O)(=O)c1ncn2c(NCc3c(F)ccc4c3CCO4)c(C#N)cc(-c3ccc(C4CC4)nc3)c12 [E 26, 8-(6-cyclopropylpyridin-3-yl)-5-(((5-fluoro-2,3-dihydrobenzofuran-4-yl)methyl)amino)-1-(methylsulfonyl)imidazo[1,5-a]pyridine-6-carbonitrile]",7.00 to 8.00,7.00 to 8.00,> 8.00,–,–,–
"Cc1ncccc1-c1cc(C#N)c(NCc2c(F)ccc3c2CCO3)n2cnc(S(C)(=O)=O)c12 [E 27, 5-(((5-fluoro-2,3-dihydrobenzofuran-4-yl)methyl)amino)-8-(2-methylpyridin-3-yl)-1-(methylsulfonyl)imidazo[1,5-a]pyridine-6-carbonitrile]",7.00 to 8.00,7.00 to 8.00,> 8.00,–,–,–
"CC(C)N1Cc2cc(C(F)(F)F)ncc2-c2cnc(NCc3c(F)ccc4c3CCO4)n3cnc(c23)C1=O [E 40, 12-(((5-fluoro-2,3-dihydrobenzofuran-4-yl)methyl)amino)-4-isopropyl-7-(trifluoromethyl)-4,5-dihydro-3H-2,4,8,11,12a-pentaazabenzo[4,5]cycloocta[1,2,3-cd]inden-3-one]",> 8.00,> 8.00,> 8.00,–,–,–
"O=C1c2ncn3c(NCc4c(F)ccc5c4CCO5)ncc(c23)-c2ccc(C3COC3)nc2CN1CC(F)(F)F [E 51, 12-(((5-fluoro-2,3-dihydrobenzofuran-4-yl)methyl)amino)-7-(oxetan-3-yl)-4-(2,2,2-trifluoroethyl)-4,5-dihydro-3H-2,4,6,11,12a-pentaazabenzo[4,5]cycloocta[1,2,3-cd]inden-3-one]",> 8.00,> 8.00,> 8.00,–,–,–
"O=C1Nc2ncccc2-c2cnc(NCc3c(F)ccc4c3CCO4)n3cnc1c23 [compound 4, 11-(((5-fluoro-2,3-dihydrobenzofuran-4-yl)methyl)amino)-2,4,5,10,11a-pentaazadibenzo[cd,f]azulen-3(4H)-one]",–,–,–,< 8.00,< 7.00,"pIC50 (Pfeiffer cell line; Homo sapiens, 168 h, anti-proliferative IC50, Pfeiffer cell line): < 7.00"
"O=C1c2ncn3c(NCc4c(F)ccc5c4CCO5)ncc(c23)-c2sccc2CN1C1CC1 [compound 87, 4-cyclopropyl-11-(((5-fluoro-2,3-dihydrobenzofuran-4-yl)methyl)amino)-4,5-dihydro-3H-8-thia-2,4,10,11a-tetraazacyclopenta[4,5]cycloocta[1,2,3-cd]inden-3-one]",–,–,–,7.95,–,"pIC50 ([1]; anti-proliferative IC50, Karpas 422 cell line): 8.06; pIC50 (Pfeiffer cell line; anti-proliferative IC50, Pfeiffer cell line): 10.74"

# The next lines start with results.
pIC50 (EED (1-441)-His protein; IC50 class),"pIC50 [1, 2]",pIC50 (Pfeiffer cell line; [3]),pIC50 (EED (1-441)-His protein),"pIC50 [1, 4]",SMILES,further results
–,–,–,9.70,7.55,"CP(C)(=O)c1ncn2c(NCc3c(F)ccc4c3CCO4)ncc(-c3ccc(C(F)(F)F)nc3)c12 [compound 119, (5-(((5-fluoro-2,3-dihydrobenzofuran-4-yl)methyl)amino)-8-(6-(trifluoromethyl)pyridin-3-yl)imidazo[1,5-c]pyrimidin-1-yl)dimethylphosphine oxide]",–
–,–,–,8.94,< 7.00,"CCP(=O)(CC)c1ncn2c(NCc3c(F)ccc4c3CCO4)ncc(-c3ccc(C(F)(F)F)nc3)c12 [compound 120, diethyl(5-(((5-fluoro-2,3-dihydrobenzofuran-4-yl)methyl)amino)-8-(6-(trifluoromethyl)pyridin-3-yl)imidazo[1,5-c]pyrimidin-1-yl)phosphine oxide]",–
–,–,–,9.51,< 7.00,"CCP(=O)(CC)c1ncn2c(NCc3c(F)ccc4c3CCO4)ncc(-c3ccc(C(F)(F)F)cc3)c12 [compound 121, diethyl(5-(((5-fluoro-2,3-dihydrobenzofuran-4-yl)methyl)amino)-8-(4-(trifluoromethyl)phenyl)imidazo[1,5-c]pyrimidin-1-yl)phosphine oxide]",–
–,–,–,9.51,< 7.00,"CCP(=O)(CC)c1ncn2c(NCc3c(F)ccc4c3CCO4)ncc(-c3ccc(S(C)(=O)=O)cc3)c12 [compound 122, diethyl(5-(((5-fluoro-2,3-dihydrobenzofuran-4-yl)methyl)amino)-8-(4-(methylsulfonyl)phenyl)imidazo[1,5-c]pyrimidin-1-yl)phosphine oxide]",–
–,–,–,8.32,7.64,"Cc1ccc(-c2cnc(NCc3c(F)ccc4c3CCO4)n3cnc(P(C)(C)=O)c23)c(C)n1 [compound 123, (8-(2,6-dimethylpyridin-3-yl)-5-(((5-fluoro-2,3-dihydrobenzofuran-4-yl)methyl)amino)imidazo[1,5-c]pyrimidin-1-yl)dimethylphosphine oxide]",–
–,–,–,8.09,7.14,"CCP(=O)(CC)c1ncn2c(NCc3c(F)ccc4c3CCO4)ncc(-c3ccc(F)cc3)c12 [compound 124, diethyl(5-(((5-fluoro-2,3-dihydrobenzofuran-4-yl)methyl)amino)-8-(4-fluorophenyl)imidazo[1,5-c]pyrimidin-1-yl)phosphine oxide]",–
–,–,–,7.56,7.04,"CCP(=O)(CC)c1ncn2c(NCc3c(F)ccc4c3CCO4)ncc(-c3ccc(C)nc3C)c12 [compound 125, (8-(2,6-dimethylpyridin-3-yl)-5-(((5-fluoro-2,3-dihydrobenzofuran-4-yl)methyl)amino)imidazo[1,5-c]pyrimidin-1-yl)diethylphosphine oxide]",–
